# How the values were obtained:
# [1] = molecular target: T1, rat EP4 receptor (Rattus norvegicus, UniProt P43114); assay: SEAP activity assay on EP4 STEP plate; format: cell-based; settings: SEAP luminescence, 6-8 hours of stimulation; read-out: STEP cell functional assay EC50 SEAP/EP4
# T1 construct: cells seeded on STEP plates
# Text: (§1) 2. […] In addition each concentration had triplicates. […] 4. […] Cover the plate with the lid. […] 6. […] 7. […] 8.
# [2] = molecular target: T2, rat EP2 receptor (Rattus norvegicus, UniProt Q62928); assay: SEAP activity assay on EP2 STEP plate; format: cell-based; settings: SEAP luminescence, 6-8 hours of stimulation; read-out: STEP cell functional assay EC50 SEAP/EP2
# T2 construct: cells seeded on STEP plates
# Text: as §1
# [3] = molecular target: T3, Human Prostanoid EP4 Receptor (Homo sapiens, UniProt P35408); assay: Radioligand binding assay, agonist site of human prostanoid EP4 receptor in transfected HEK-293 cells; settings: for inhibition at 0.1 µM: 2 h, pH 6, read-out: hEP4 receptor binding, % @ 100 nM, @ 100 nM test compound; for IC50: read-out: hEP4 receptor binding IC50; for Ki: read-out: hEP4 receptor binding Ki
# T3 construct: expressed in transfected cells; host or cells: HEK-293 cells (cell membrane homogenates)
# Experimental: Radioligand Binding Assay for the Evaluation of the Affinity of Compounds for the Agonist Site of the Human Prostanoid EP4 Receptor in Transfected HEK-293 Cells
# Following incubation, the samples are filtered rapidly under vacuum through glass fiber filters (GF/B, Packard) presoaked with 0.3% PEI and rinsed several times with ice-cold 50 mM Tris-HCl using a 96-sample cell harvester (Unifilter, Packard). The filters are dried then counted for radioactivity in a scintillation counter (Topcount, Packard) using a scintillation cocktail (Microscint 0, Packard).
# [4] = molecular target: T1, rat EP4 receptor; assay: cAMP level assay on EP4 STEP plate; format: cell-based; settings: cAMP by ELISA, 30 minutes, 500 μM IBMX; read-out: STEP cell functional assay EC50 cAMP/EP4
# Text: Functional Cellular Assays (STEP Plate Format)
# Procedure of cAMP Assay for EP2/EP4 Agonist
# 3. […] In addition each concentration had triplicates.
# 6. Aspirate the supernatant.
# [5] = test system: calvarial bone defect; assay: Rat calvarial defect model; format: in vivo, female Sprague Dawley rats; settings: 3 mg/ml in calcium phosphate cement/demineralized bone matrix, eight weeks, values only in FIG. 1
# Experimental: The rat calvarial defect model is a widely used model through which the ability of a treatment agent to induce bone formation is assessed (Aghaloo et al., The effect of NELL1 and bone morphogenetic protein-2 on calvarial bone regeneration, J. Oral Maxillofac. Surg., 2010, 68, 300-308; Mark et al., Repair of calvarial nonunions by osteogenin, a bone-inductive protein, Plast. Reconstr. Surg., 1990, 86, 623-30). Bone defects are created by removal of bone from the cranium of female Sprague Dawley rats by a bone trephine (cranial defect). Cranial defects are 2.6 mm in diameter and the cranium approximately 1 mm thick. A matrix of approximately 2 mm thickness is applied to the defect. Thus the dosing volume for each defect is calculated as π*r^2*matrix thickness=3.14*1.3^2*2=10.61 μl and rounded to 11 μl for purposes of dose calculation. Example 2E is delivered set inside calcium phosphate cement that, after loading with drug and setting, is ground to a fine powder and suspended in demineralized bone matrix at a ratio of 1:8 (weight/volume). Example 2E is tested at one dose of 3 mg/ml with five rats in the test group. […] The area measured at eight weeks was compared to the area of the original defect and the degree of repair calculated by the following formula: (original area-current area)/original area*100 The mean repair for each group after eight weeks of treatment is shown in the FIG. 1.
# T2 sequence (Q62928 whole entry): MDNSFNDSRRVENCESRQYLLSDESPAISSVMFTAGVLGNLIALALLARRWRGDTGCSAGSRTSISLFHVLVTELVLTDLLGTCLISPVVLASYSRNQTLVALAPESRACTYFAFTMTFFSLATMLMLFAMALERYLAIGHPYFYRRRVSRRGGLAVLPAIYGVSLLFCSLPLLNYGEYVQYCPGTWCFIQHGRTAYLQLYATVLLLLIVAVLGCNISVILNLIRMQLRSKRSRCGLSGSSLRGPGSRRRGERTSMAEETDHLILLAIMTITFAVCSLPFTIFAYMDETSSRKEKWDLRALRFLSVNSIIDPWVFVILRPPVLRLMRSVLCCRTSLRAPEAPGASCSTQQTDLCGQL
# T1 sequence (P43114 whole entry): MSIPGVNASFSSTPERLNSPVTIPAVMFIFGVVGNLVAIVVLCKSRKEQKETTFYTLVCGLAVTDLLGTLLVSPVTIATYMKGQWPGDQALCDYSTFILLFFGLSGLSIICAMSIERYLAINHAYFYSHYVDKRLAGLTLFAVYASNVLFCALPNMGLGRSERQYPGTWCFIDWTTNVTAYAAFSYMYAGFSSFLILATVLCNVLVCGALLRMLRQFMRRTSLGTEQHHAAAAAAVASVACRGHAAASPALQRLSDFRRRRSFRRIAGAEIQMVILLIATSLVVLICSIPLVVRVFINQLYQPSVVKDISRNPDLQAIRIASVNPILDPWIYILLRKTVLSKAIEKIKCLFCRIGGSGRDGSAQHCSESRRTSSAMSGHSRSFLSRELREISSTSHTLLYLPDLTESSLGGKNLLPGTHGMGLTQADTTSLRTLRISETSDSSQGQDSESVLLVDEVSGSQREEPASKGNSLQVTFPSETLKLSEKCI
# T3 sequence (P35408 whole entry): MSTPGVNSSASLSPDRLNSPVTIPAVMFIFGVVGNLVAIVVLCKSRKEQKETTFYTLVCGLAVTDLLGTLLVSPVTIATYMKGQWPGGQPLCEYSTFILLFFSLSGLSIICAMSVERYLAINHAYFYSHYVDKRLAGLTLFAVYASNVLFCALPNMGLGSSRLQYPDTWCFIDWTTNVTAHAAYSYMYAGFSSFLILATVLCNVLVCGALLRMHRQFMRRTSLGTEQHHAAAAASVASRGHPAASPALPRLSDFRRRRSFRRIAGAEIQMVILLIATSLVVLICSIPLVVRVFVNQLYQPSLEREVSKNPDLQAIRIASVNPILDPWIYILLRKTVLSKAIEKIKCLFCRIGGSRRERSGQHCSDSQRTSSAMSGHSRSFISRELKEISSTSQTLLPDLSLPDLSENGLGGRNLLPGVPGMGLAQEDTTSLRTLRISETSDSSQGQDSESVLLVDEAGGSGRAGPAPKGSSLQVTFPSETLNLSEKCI
EC50 [1] [nM],EC50 [2] [nM],inhibition at 0.1 µM [3] [%],IC50 [3] [nM],Ki [3] [nM],EC50 [4] [nM],melting point [°C],Structure (SMILES),Healing of a calvarial bone defect [5]
0.064,905,,4,1.5,,,"CCC#CCC(C)[C@H](O)/C=C/[C@H]1CCC(=O)N1CCCCCCC(=O)O (mixture of isomers) [Example 2C, 7-((2R)-2-((3S,4R/S,E)-3-hydroxy-4-methylnon-1-en-6-yn-1-yl)-5-oxopyrrolidin-1-yl)heptanoic acid]",
0.19,120,,1.3,0.47,,,"CC#CCC(C)[C@H](O)/C=C/[C@H]1CCC(=O)N1CCc1ccc(C(=O)O)cc1 (mixture of isomers) [Example 8C, 4-(2-((2R)-2-((3S,4R/S,E)-3-hydroxy-4-methyloct-1-en-6-yn-1-yl)-5-oxopyrrolidin-1-yl)ethyl)benzoic acid]",
0.19 ± 0.07,,,3,1.1,0.96 ± 0.46,,"CCC#CC[C@H](C)[C@H](O)/C=C/[C@H]1CCC(=O)N1CCCCCCC(=O)O [Example 2E, 7-((R)-2-((3S,4S,E)-3-hydroxy-4-methylnon-1-en-6-yn-1-yl)-5-oxopyrrolidin-1-yl)heptanoic acid]",Accelerated Healing
0.02,,,0.67,0.25,0.31,,"CCC#CC[C@H](C)[C@H](O)/C=C/[C@H]1CCC(=O)N1CCc1ccc(C(=O)O)cc1 [Example 9C, 4-(2-((R)-2-((3S,4S,E)-3-hydroxy-4-methylnon-1-en-6-yn-1-yl)-5-oxopyrrolidin-1-yl)ethyl)benzoic acid]",
0.32,5300,,6.1,2.3,1.54,,"CCC#CC[C@H](C)[C@H](O)/C=C/[C@H]1CCC(=O)N1CCCc1ccc(C(=O)O)s1 [Example 17D, 5-(3-((R)-2-((3S,4S,E)-3-hydroxy-4-methylnon-1-en-6-yn-1-yl)-5-oxopyrrolidin-1-yl)propyl)thiophene-2-carboxylic acid]",
2.03,> 10000,,,,,,"CC(CC#Cc1ccccc1)[C@@H](O)/C=C/[C@H]1CCC(=O)N1CCCc1ccc(C(=O)O)s1 (stereo partly drawn) [Example 18D, 5-(3-((2R)-2-((3R,E)-3-hydroxy-4-methyl-7-phenylhept-1-en-6-yn-1-yl)-5-oxopyrrolidin-1-yl)propyl)thiophene-2-carboxylic acid]",

# Continued, molecule first:
Structure (SMILES),EC50 [1] [nM],EC50 [2] [nM],inhibition at 0.1 µM [3] [%],IC50 [3] [nM],Ki [3] [nM],EC50 [4] [nM],melting point [°C],Healing of a calvarial bone defect [5]
"CC#CCC(C)[C@H](O)/C=C/[C@H]1CCC(=O)N1CCCCCCC(=O)O (mixture of isomers) [Example 1C, 7-((2R)-2-((3S,4R/S,E)-3-hydroxy-4-methyloct-1-en-6-yn-1-yl)-5-oxopyrrolidin-1-yl)heptanoic acid]",0.67,760,86,,,,,
"CC#CCC(C)[C@@H](O)/C=C/[C@H]1CCC(=O)N1CCCCCCC(=O)O (mixture of isomers) [Example 1D, 7-((2R)-2-((3R,4R/S,E)-3-hydroxy-4-methyloct-1-en-6-yn-1-yl)-5-oxopyrrolidin-1-yl)heptanoic acid]",4.82,> 10000,11,,,,,
"CC#CC[C@H](C)[C@H](O)/C=C/[C@H]1CCC(=O)N1CCCCCCC(=O)O [Example 1E, 7-((R)-2-((3S,4S,E)-3-hydroxy-4-methyloct-1-en-6-yn-1-yl)-5-oxopyrrolidin-1-yl)heptanoic acid]",0.57,800,,3.9,1.5,2.98,113 to 114,
"CC#CC[C@@H](C)[C@H](O)/C=C/[C@H]1CCC(=O)N1CCCCCCC(=O)O [Example 1F, 7-((R)-2-((3S,4R,E)-3-hydroxy-4-methyloct-1-en-6-yn-1-yl)-5-oxopyrrolidin-1-yl)heptanoic acid]",5.79,184,,18,6.9,,100 to 101,
"CC(CC#Cc1ccccc1)[C@H](O)/C=C/[C@H]1CCC(=O)N1CCCc1ccc(C(=O)O)s1 (stereo partly drawn) [Example 18C, 5-(3-((2R)-2-((3S,E)-3-hydroxy-4-methyl-7-phenylhept-1-en-6-yn-1-yl)-5-oxopyrrolidin-1-yl)propyl)thiophene-2-carboxylic acid]",< 0.01,> 10000,,,,,,
